Results on one compound are retold here after US6866861B1, “Method and composition for enhancing milk component concentrations” (Land O'Lakes, Inc., priority 1999, dated 2005).

The experiment concerns cows. The experiment in a line: Abomasal infusion of glycerol in cows, different cows (Example 5). The conditions noted are these: for Fat / Lactose / Total Solids / True Protein: 150 g/cow/day abomasal, average of 3 cows. In kind it is in vivo, cow. The method, then:
To determine the weight percent total solids, wet basis, in a sample, the actual weight of total solids is determined by analyzing the sample in accordance with Method #925.23 (33.2.09) of Official Methods of Analysis, Association of Official Analytical Chemists (AOAC) (16th Ed., 1995). The weight percent total solids, wet basis, is then calculated by dividing the actual weight of total solids by the actual weight of the sample. The weight percent of true protein, wet basis, for a particular sample is calculated after first determining the wet basis weight percent of total Kjeldahl nitrogen and the wet basis weight percent of non-protein nitrogen in the sample. The wet basis weight percent of total Kjeldahl nitrogen in the sample is determined using the method referenced above. The wet basis weight percent of non-protein nitrogen (NPN) in the sample is determined in accordance with Method #991.21 (33.2.12) of Official Methods of Analysis, Association of Official Analytical Chemists (AOAC) (16th Ed., 1995). The weight percent of true protein, wet basis, in the sample is then determined by subtracting the wet basis weight percent of non-protein nitrogen in the sample from the wet basis weight percent of total Kjeldahl nitrogen in the sample. To determine the weight percent lactose, wet basis, in a liquid sample, the weight of the liquid sample is first determined. The actual weight of lactose in the liquid sample may then be determined using analysis kit number 176-303, that is available from Boehringer-Mannheim of Indianapolis, Ind. in accordance with the procedural instructions included with analysis kit number 176-303. The weight percent lactose, wet basis, in the liquid sample is then calculated by dividing the actual weight of lactose in the liquid sample by the actual weight of the liquid sample. To determine the weight percent fat, wet basis, in a sample, the actual weight of fat in the sample is determined in accordance with Method #974.09 (33.7.18) of Official Methods of Analysis, Association of Official Analytical Chemists (AOAC) (16th Ed., 1995). The weight percent fat, wet basis, is then calculated by dividing the actual weight of fat in the sample by the actual weight of the sample. In this example, glycerol was abomasally infused into three different cows at a rate of 150 grams per cow per day during a 14 day test period. The cows used in this Example were different from the cows used in Example 4. The rations provided to the cows during the period extending from day 0, prior to abomasal infusion of glycerol, through day 14 of the test period were the same. The only difference in feeding of the cows between day 0 and days 1-14 of the test period were that during days 1-14 the cows were abomasally infused with the dosage of 150 grams of glycerol per cow per day. The glycerol was not combined with any other materials prior to being abomasally infused into the cattle. Milk from the three cows was collected and analyzed prior to infusion (on day 0) and also was collected and analyzed on the third, seventh and fourteenth day of the test period. The results presented in Table 5 below for each milk component for each particular day are averages for the milk collected from the three different cows. The net change for the different milk components presented in Table 5 was calculated by averaging the results of days 3, 7 and 14 for a particular milk component and subtracting the results presented for day 0 for the particular milk component.

Setting [1] is: milk, average of days 3, 7, 14 minus day 0.

SMILES strings stand for the structures.

As for `OCC(O)CO` [glycerol], the “weight percent of fat, true protein, lactose, and total solids in the milk (conclusion in words)” value (abomasal infusion, 14 day test period) is “net increase”. In addition, under “milk, Day 3”, the Fat worked out at 3.39 Wt %, the Lactose amounted to 4.86 Wt. %, the “Total Solids” value came out at 12.04 Wt. % and the “True Protein” value came to 3.04 Wt. %. Besides, under “milk, Day 7”, the Fat is given as 3.25 Wt %, the Lactose was found to be 5.19 Wt. %, the “Total Solids” value was determined as 12.17 Wt. % and the “True Protein” value was determined as 2.98 Wt. %. Moreover, for the setting “milk, Day 14”, the Fat came to 3.32 Wt %, the Lactose came out at 4.87 Wt. %, the “Total Solids” value is 11.99 Wt. % and the “True Protein” value is on record as 3.05 Wt. %. Besides, under setting [1], the “Fat, Net Change” value was “+0.25 Wt %”; the “Lactose, Net Change” value is “+0.08 Wt. %”; the “Total Solids, Net Change” value was “+0.44 Wt. %”; the “True Protein, Net Change” value is recorded as “+0.10 Wt. %”.
